# In patent US12605350B2, “Composition for preventing, ameliorating, or treating disease caused by nitration of tyrosine in proteins comprising tyrosine as effective component” (INDUSTRY-ACADEMIC COOPERATION FOUNDATION GYEONGSANG …, priority 2020, dated 2026):
# Key:
# [1] = tested on: chronic immobilization stress group (STR); test: TST (tail suspension test) after chronic immobilization stress; type: in vivo, mouse; settings: tyrosine-diet (181.2 mg/kg) vs normal diet, p<0.05
# Protocol: The animal models were divided into two groups (i.e., normal group and stress group). The animal of stress group was individually brought by force to a restrainer for 2 hours every day (i.e., between 2 PM and 4 PM) so that it was applied with chronic immobilization stress for 15 days. Change in bodyweight and food intake amount were measured every other day. The normal group and stress group were divided again into a normal diet group and a tyrosine-supplemented diet group (181.2 mg/kg), and then fed. For TST (tail suspension test), the mouse was individually hung in a box with horizontal bar. To measure the immobile duration, animal movement was followed for 6 minutes.
# [2] = tested on: high-fat diet mouse model of type 2 diabetes; test: ROS/RNS amount in plasma, high-fat diet model; type: in vivo; settings: HFD+L-Tyr vs HFD
# Protocol: (§1) Twenty-seven C57BL/6 male mice (3-week old) were acclimated to the breeding condition for 1 week. […] Blood glucose was measured every week.
# Mouse was anesthetized with avertin, and blood was collected from a heart. After the reaction with EDTA in a vacucontainer, the blood was centrifuged for 15 minutes at 1,500×g, 4° C. to separate plasma. According to heart perfusion with PBS and 4% paraformaldehyde (PFA), tissue fixation was carried out. Then, each tissue was harvested and stored in PFA.
# After 3-fold dilution of the plasma in PBS, concentration of reactive oxygen/reactive nitrogen (ROS/RNS) in plasma was measured using Oxiselect ROS/RNS assay kit (Cell Biolabs) according to the recommended experimental protocol.
# [3] = tested on: mouse model of chronic immobilization stress; test: object recognition test (ORT); type: in vivo; settings: D-Tyr-containing diet (181 mg D-Tyr/kg AIN-93G), chronic stress 14 days
# Protocol: Twenty-eight C57BL/6 male mice (7-week old) were divided into two groups, each group provided for 1 week with a normal diet or D-tyrosine (D-Tyr)-containing diet (181 mg D-Tyr/kg AIN-93G).
# Once the animals become 8-week old, they were applied with chronic immobilization stress (CIS) under light condition of 200 lux, 2 hours per day for 2 weeks. The animals were divided into the control group (CTL), D-Tyr diet control group (CTL+D-Tyr), chronic stress group (STR), and D-Tyr diet chronic stress group (STR+D-Tyr), in which each group consists of 7 animals.
# Upon the completion of the CIS for 2 weeks, a cognitive function test was carried out. To compare the cognitive function between the group provided with D-Tyr-containing diet over the entire test period including habituation period and normal feed diet group, an object recognition test (ORT) and an object location recognition test (OLT) for testing long-term memory skills were carried out.
# ORT: The test consists of three stages, i.e., habituation, familiarization, and test. The animals were habituated in a test box, 10 minutes per day for 2 days. At the familiarization stage on Day 3, they were allowed to explore two identical objects for 10 minutes. […] The object recognition function index (i.e., discrimination index: DI) was calculated based on the following formula (3). […]
# [4] = target: T1, human recombinant MnSOD (Homo sapiens, UniProt P04179); test: SOD activity of human recombinant MnSOD treated with peroxynitrite; type: biochemical; settings: human recombinant MnSOD with peroxynitrite (2.1 mM PN), 10 minutes on ice
# T1 sequence (P04179 25-222): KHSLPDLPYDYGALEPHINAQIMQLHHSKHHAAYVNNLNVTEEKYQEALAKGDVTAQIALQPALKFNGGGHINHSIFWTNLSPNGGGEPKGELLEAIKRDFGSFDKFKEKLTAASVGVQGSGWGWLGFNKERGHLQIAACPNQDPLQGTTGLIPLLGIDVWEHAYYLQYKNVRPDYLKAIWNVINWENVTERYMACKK
# Protocol: Peroxynitrite was diluted by 40 times with 0.3 M NaOH, and absorbance at 302 nm was measured. Then, it was quantified by using the molar absorption coefficient of peroxynitrite) (ε302=1670 M^−1 cm^−1).
# For the measurement of SOD activity, SOD colorimetric activity kit by ThermoFisher was used. Human recombinant MnSOD within reference SOD range, peptide, and peroxynitrite were admixed with one another, and the reaction was allowed to occur on ice for 10 minutes. To a 96-well plate, 10 μl of reference SOD or the reaction mixture, and 50 μl of a substrate solution provided in the kit were added, and the absorbance at 450 nm was measured. After adding 25μl of xanthine oxidase provided in the kit and allowing the reaction to occur for 20 minutes at room temperature, absorbance at 450 nm was measured. By using the data obtained by subtracting the first-measured absorbance from the second-measured absorbance, SOD activity was obtained.
# [5] = tested on: high-fat diet mouse model of type 2 diabetes; test: insulin resistance test; type: in vivo; settings: HFD+L-Tyr vs HFD; 6 hours fasting, insulin 0.75 U/kg i.p., 15-90 minutes
# Protocol: as §1
# Insulin was diluted with physiological saline to prepare 0.15 U/ml solution. Blood glucose of a mouse, which has been subjected to fasting for 6 hours, was measured, and the animal was intraperitoneally injected with insulin (0.75 U/bodyweight (kg)). After the intraperitoneal injection of insulin, blood glucose was measured at time points of 15, 30, 60, and 90 minutes. Insulin injection amount(μl)=Bodyweight(g)×5 Formula (2)
# [6] = tested on: animal model of acute hepatic encephalopathy caused by AOM; test: ALT in plasma, hepatic encephalopathy caused by azoxymethane; type: in vivo, mouse; settings: L-tyrosine 100 mg/kg oral once a day for 4 days, AOM 100 mg/kg i.p.
# Protocol: C57BL/6 male mouse (13-week old, KOATECH, South Korea) was allowed to have free access to diets and water in sterile breeding room with constant temperature and humidity. The animals were divided into 3 test groups, i.e., (1) Control group (Control), (2) Carboxymethyl cellulose+azoxymethane treatment group (CMC+AOM), and (3) L-Tyrosine+AOM treatment group (L-Tyr+AOM). L-Tyrosine (100 mg/kg) was suspended in 0.5% CMC (carboxymethyl cellulose). The animal was orally administered, once a day for 4 days, with L-tyrosine or the prepared solvent CMC. Two hours after the oral administration on Day 4, intraperitoneal injection of AOM (100 mg/kg, […]) was carried out. To prevent dehydration, the animal was intraperitoneally injected with […] of physiological saline, 12 hours after the administration of AOM. Four hours after the injection, the test animal was sacrificed, blood was collected from the heart, and the liver tissues were harvested. Blood collected in the above was centrifuged for 15 minutes at 3,000 rpm to separate plasma, and ALT (alanine aminotransferase) as an index of liver cell injury was measured by using ChemiLab GPT Assay Kit (IVD-LAB, Korea). According to the standard measurement method of the kit, absorbance was measured at a wavelength of 340 nm, and then expressed in unit of U/L.
SMILES,immobile duration [1],plasma ROS/RNS level ([2]; listed as Tyr),"ORT (object recognition function index, DI) [3]",MnSOD (SOD) activity ([4]; listed as Tyr),"blood glucose amount, insulin resistance test [5]",plasma ROS/RNS level [2],MnSOD (SOD) activity [4],ALT in plasma [6]
N[C@@H](Cc1ccc(O)cc1)C(=O)O [tyrosine],statistically significant decrease in immobile duration,statistically significant decrease in tissue weight and ROS/RNS amount in plasma,no statistically significant difference,SOD activity can be maintained,,,,
N[C@@H](Cc1ccc(O)cc1)C(=O)O [L-tyrosine],,,,,statistically significant decrease in blood glucose amount,statistically significant decrease in plasma ROS/RNS level,higher MnSOD activity,suppressed with statistical significance
